From patent publication US20090170847A1, “Imidazopyridine Derivatives Inhibiting Protein Kinase Activity, Method for the Preparation Thereof and Pharmaceutical Composition Containing Same” (priority 2006, published 2009)

How the values were obtained:
Format in all cases: biochemical
[1] = biological target: T1, CDK-2/cycline A (Homo sapiens, UniProt P24941); assay: CDK-2 enzyme inhibition (histone H1, 32P-ATP)
T1 construct: purchased Upstate
Description: (§1) 0.33 mg/ml of MBP (Upstate), 100 μM of ATP and 0.25 μCi of ^32P-ATP were added to the buffer solution as substrates. 5 nM of recombinant Erk-1 (Upstate) was added the resulting mixture, and the mixture was reacted at 30° C. for 1 hour. The reaction was terminated by adding 5 μl of 5% phosphoric acid solution to 25 μl of the reaction mixture. 15 μl of the resulting solution was dropped on whatman p81 filter paper, which was then washed in 0.5% phosphoric acid solution for 10 mins. After repeating the washing 3 times, the filter paper was dried and cpm thereof was measured by a liquid scintillation counter (Packard, USA). Inhibitory capacities of the test compounds for the enzyme activity were assessed according to the same method as in GSK-3β analysis, and IC50 value was calculated.
The procedure of ERK-1 analysis was repeated to assess inhibitory capacities of the test compounds for the enzyme activity, except for using 2.5 μg of histone H1 (Upstate) and 100 nM of recombinant CDK-2/cycline A (Upstate).

[2] = biological target: T2, JNK-1 (Homo sapiens, UniProt P45983); assay: JNK-1 enzyme inhibition (GST-ATF2, 32P-ATP)
T2 construct: purchased Upstate
T2 sequence (P45983 whole entry, species assumed): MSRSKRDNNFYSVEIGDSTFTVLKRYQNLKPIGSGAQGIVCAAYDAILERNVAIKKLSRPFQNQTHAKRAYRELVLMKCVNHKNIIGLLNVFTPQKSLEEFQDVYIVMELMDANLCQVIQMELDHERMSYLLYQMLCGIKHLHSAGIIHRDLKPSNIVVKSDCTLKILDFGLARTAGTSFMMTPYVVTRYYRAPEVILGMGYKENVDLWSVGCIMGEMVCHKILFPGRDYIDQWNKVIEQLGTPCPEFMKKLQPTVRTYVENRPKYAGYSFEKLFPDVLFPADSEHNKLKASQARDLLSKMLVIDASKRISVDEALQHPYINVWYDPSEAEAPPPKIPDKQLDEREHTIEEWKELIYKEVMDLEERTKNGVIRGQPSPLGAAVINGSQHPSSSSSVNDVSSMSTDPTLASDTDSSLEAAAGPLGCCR

[3] = biological target: T3, p38 Mitogen-activated protein kinase (MAPK) (Homo sapiens, UniProt Q16539); assay: p38 MAPK enzyme inhibition (histone H1, 32P-ATP); conditions: p38 MAPK (recombinant p38a)
T3 construct: purchased Upstate
T3 sequence (Q16539 whole entry): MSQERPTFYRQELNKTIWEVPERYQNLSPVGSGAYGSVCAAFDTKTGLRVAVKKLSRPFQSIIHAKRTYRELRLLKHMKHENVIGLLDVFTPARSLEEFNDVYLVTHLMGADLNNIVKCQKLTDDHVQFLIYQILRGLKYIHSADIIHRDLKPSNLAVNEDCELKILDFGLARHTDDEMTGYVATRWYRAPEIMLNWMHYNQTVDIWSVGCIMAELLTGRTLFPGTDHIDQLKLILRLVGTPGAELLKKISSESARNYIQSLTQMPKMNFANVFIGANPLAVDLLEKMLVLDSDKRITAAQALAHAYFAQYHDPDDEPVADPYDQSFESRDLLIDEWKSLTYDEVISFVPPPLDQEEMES
Description: The procedure of ERK-1 analysis was repeated to assess inhibitory capacities of the test compounds for the enzyme activity, except for using 2.5 μg of histone H1 (Upstate) and 5 nM of recombinant p38a (Upstate).

[4] = biological target: T4, KDR (Homo sapiens, UniProt P35968); assay: KDR enzyme inhibition (Biotin-polyE4Y, alphascreen); conditions: 0.1 μM ATP
T4 construct: purchased Upstate
T4 sequence (P35968 20-1356, species assumed): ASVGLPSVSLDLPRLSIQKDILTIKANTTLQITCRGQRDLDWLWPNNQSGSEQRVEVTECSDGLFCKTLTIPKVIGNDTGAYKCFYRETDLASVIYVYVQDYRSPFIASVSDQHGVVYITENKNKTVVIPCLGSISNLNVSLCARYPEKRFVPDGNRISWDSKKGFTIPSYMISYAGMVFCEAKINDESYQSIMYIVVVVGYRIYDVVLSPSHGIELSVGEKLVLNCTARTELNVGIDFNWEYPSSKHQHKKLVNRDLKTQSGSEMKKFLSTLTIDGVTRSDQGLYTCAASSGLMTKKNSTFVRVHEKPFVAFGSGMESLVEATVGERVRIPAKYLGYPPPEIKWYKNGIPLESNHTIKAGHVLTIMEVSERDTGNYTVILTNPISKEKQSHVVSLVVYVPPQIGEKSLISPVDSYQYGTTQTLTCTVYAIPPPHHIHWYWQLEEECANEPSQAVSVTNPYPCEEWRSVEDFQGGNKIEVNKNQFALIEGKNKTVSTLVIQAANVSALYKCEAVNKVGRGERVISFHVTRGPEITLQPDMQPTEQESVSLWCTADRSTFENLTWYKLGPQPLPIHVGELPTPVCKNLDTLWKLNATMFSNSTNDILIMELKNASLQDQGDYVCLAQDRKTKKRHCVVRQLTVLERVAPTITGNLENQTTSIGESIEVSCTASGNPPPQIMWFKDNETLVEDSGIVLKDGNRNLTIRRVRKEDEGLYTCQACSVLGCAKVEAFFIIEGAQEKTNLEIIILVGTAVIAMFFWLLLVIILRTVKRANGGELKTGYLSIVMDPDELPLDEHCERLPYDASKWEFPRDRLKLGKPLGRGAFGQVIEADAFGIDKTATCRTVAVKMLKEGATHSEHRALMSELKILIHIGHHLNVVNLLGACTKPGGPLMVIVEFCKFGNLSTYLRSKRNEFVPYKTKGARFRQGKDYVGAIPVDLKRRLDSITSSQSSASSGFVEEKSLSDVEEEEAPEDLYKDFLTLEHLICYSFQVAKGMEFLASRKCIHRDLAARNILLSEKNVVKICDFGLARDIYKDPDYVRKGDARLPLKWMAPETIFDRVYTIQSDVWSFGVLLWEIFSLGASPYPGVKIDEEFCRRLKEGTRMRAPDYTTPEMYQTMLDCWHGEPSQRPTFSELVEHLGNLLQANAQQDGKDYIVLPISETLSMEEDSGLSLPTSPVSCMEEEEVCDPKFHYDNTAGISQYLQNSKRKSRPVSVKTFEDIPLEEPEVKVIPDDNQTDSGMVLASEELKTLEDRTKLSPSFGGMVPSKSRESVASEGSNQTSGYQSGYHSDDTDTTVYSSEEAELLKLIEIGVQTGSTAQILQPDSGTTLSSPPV
Description: (§2) The test solution prepared above by dissolving a test compound in DMSO was added to the reaction solution in an amount of less than 5% based on the total reaction solution to analyze the capacity for enzyme inhibitory activity. The cpm value obtained when the test compounds was present relative to the cpm value in the absence of the test compound was represented by percentage, and IC50 (μM) was determined as the concentration of the test compound required to inhibit the enzyme activity by 50% relatively to the control solution.
The compounds prepared in the Examples were dissolved in dimethylsulfoxide (DMSO) at a concentration of 12.5 mM to prepare test solution, and enzyme reaction was conducted in a buffer solution containing 50 mM tris-HCl (pH 7.5), 5 mM MgCl2, 1 mM MnCl2, 0.01% tween-20 and 2 mM of DTT. 1 nM of Biotin-polyE4Y (Packard) and 0.1 μM of ATP were added to the buffer solution as substrates. 2 nM of recombinant KDR (Upstate) was added the resulting mixture and reaction was carried out at 30° C. for 1 hour. 10 μl of a diluted solution prepared by diluting alphascreen phosphotyrosine (T-Tyr-100, Packard) beads with a solution containing 6.25 mM of HEPES (pH 7.4), 250 mM of NaCl, 100 Mm EDTA, and 0.25% BSA was added to 15 μl of the KDR reaction solution. After a reaction at a room temperature for 1 hour, alphascreen signal was measured by a fusion a-FP (Packard). Inhibitory capacities of the test compounds for the enzyme activity were assessed according to the same method as in GSK-3β analysis, and IC50 value was calculated.

[5] = biological target: T5, ERK-1 (Homo sapiens, UniProt P27361); assay: ERK-1 enzyme inhibition (MBP, 32P-ATP); conditions: ERK-1, 100 μM ATP
T5 construct: purchased Upstate
T5 sequence (P27361 whole entry, species assumed): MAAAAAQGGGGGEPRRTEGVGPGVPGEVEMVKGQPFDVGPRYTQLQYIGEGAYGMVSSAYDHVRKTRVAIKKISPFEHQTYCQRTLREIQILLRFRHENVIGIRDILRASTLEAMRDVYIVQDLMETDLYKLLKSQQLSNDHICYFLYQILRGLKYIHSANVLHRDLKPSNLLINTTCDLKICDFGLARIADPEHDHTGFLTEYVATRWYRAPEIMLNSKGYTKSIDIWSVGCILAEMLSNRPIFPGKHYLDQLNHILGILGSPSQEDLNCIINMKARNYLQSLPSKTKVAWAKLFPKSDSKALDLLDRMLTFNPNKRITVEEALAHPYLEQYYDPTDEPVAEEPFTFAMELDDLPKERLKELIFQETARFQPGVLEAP
Description: as §2
as §1, with “The compounds prepared in the Examples were dissolved in dimethylsulfoxide (DMSO) at a concentration of 12.5 mM to prepare test compounds and enzyme reaction was conducted in a buffer solution containing 50 mM of tris-HCl (pH 7.5), 10 mM of MgCl2, 1 mM of EGTA, 1 mM of EDTA and 1 mM of DTT. 0.33” for “0.33”

[6] = biological target: T6, Aurora Kinase A (Homo sapiens, UniProt O14965); assay: Aurora kinase A enzyme inhibition (Kemptide, Kinase glo); conditions: 1 μM ATP
T6 construct: purchased Upstate
T6 sequence (O14965 1-403): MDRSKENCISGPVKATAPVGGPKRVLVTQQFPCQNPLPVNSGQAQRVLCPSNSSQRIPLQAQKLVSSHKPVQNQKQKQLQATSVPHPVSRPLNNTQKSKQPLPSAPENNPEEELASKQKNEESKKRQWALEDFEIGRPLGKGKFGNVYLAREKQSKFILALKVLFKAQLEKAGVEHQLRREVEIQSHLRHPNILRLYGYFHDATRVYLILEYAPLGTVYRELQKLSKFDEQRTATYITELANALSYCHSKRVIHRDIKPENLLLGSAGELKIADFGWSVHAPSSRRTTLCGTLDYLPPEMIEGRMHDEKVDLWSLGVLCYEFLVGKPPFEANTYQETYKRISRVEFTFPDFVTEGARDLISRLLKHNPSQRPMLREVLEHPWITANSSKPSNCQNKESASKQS
Description: as §2
(§3) A test solution was prepared by dissolving one of the compounds of the Examples in DMSO at a concentration of 12.5 mM. Enzyme reaction was conducted in a buffer solution containing 20 mM of HEPES (pH 7.5), 5 mM MgCl2, 0.5 mM ethylene glycol bis(b-aminoethylether) tetraacetic acid (EGTA), 200 mM of KCl, 1 mM of DTT and 0.05% triton X-100. 100 μM of Kemptide peptide (Upstate) and 1 μM of ATP were added to the buffer solution as substrates. Recombinant aurora kinase (Upstate) was added the resulting mixture at a concentration of 10 nM and reaction was carried out at 30° C. for 1 hour. 25 μl of the resulting solution was mixed with 25 μl of Kinase glo (promega), thereby inducing the second reaction by luciferase. The amount of remained ATP was measured by fusion a-FP (Packard, USA). Inhibitory capacities of the test compounds for the enzyme activity were assessed according to the same method as in GSK-3β analysis, and IC50 value was calculated.

[7] = biological target: T7, PDK-1 (Homo sapiens, UniProt O15530); assay: PDK-1 enzyme inhibition (PDKtide, Kinase glo)
T7 construct: purchased Upstate
T7 sequence (O15530 1-556): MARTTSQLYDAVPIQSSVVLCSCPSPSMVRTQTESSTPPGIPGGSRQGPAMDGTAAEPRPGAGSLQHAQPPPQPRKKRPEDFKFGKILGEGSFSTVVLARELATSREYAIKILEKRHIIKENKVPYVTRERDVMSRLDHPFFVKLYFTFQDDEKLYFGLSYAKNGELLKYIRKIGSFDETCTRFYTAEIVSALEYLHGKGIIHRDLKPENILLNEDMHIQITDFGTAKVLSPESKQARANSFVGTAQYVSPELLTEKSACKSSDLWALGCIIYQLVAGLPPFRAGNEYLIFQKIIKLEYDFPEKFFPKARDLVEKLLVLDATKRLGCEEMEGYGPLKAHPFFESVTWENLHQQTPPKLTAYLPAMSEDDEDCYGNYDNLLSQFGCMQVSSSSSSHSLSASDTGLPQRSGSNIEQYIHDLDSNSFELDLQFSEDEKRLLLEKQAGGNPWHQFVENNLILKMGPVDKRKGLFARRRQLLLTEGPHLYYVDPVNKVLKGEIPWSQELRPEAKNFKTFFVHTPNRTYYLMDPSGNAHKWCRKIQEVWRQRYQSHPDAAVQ
Description: as §3
The procedure of aurora kinase A analysis was repeated to assess inhibitory capacities of the test compounds for the enzyme activity, except for using a buffer solution containing 50 mM of tris-HCl (pH 7.5), 10 mM of MgCl2, 1 mM of EGTA and 1 mM of […]; 2.5 μM of PDKtide (peptide, Upstate) (Upstate); and 31.5 nM of recombinant PDK1 (Upstate).

SMILES	IC50 [1] [nM]	IC50 [2] [nM]	IC50 [3] [nM]	IC50 [4] [nM]	IC50 [5] [nM]	IC50 [6] [nM]	IC50 [7] [nM]
Cc1ccncc1NC(=O)c1ccnc2[nH]c(-c3ccc(NCCCN4CCCC4)cc3)nc12 [Example 340, 2-[4-(3-pyrrolidin-1-yl-propylamino)-phenyl]-3H-imidazo[4,5-b]pyridine-7-carboxylic acid(4-methyl-pyridin-3-yl)-amide]	400	100					
Cc1ccncc1NC(=O)c1ccnc2[nH]c(-c3cccc(F)c3)nc12 [Example 451, 2-(3-fluoro-phenyl)-3H-imidazo[4,5-b]pyridine-7-carboxylic acid(4-methyl-pyridin-3-yl)-amide]	360	10500	3250	1650			
COc1ccncc1NC(=O)c1ccnc2[nH]c(-c3ccc(F)cc3)nc12 [Example 246, 2-(4-fluoro-phenyl)-3H-imidazo[4,5-b]pyridine-7-carboxylic acid(4-methyloxy-pyridin-3-yl)-amide]	225	180		520			
Cc1ccncc1NC(=O)c1c(Br)cnc2[nH]c(-c3cccc(F)c3)nc12 [Example 452, 6-bromo-2-(3-fluoro-phenyl)-3H-imidazo[4,5-b]pyridine-7-carboxylic acid(4-methyl-pyridin-3-yl)-amide]	350				19000		
Cc1ccncc1NC(=O)c1ccnc2[nH]c(-c3ccc(NCCCCN(C)C)cc3)nc12 [Example 343, 2-[4-(4-dimethylamino-butylamino)-phenyl]-3H-imidazo[4,5-b]pyridine-7-carboxylic acid(4-methyl-pyridin-3-yl)-amide]	300			170		198	3100
CCOc1ccncc1NC(=O)c1ccnc2[nH]c(-c3ccc(F)cc3)nc12 [Example 287, 2-(4-fluoro-phenyl)-3H-imidazo[4,5-b]pyridine-7-carboxylic acid(4-ethoxy-pyridin-3-yl)-amide]	120	460		1500			
CCS(=O)(=O)Nc1ccc(CCNC(=O)c2ccnc3[nH]c(-c4ccc(F)cc4)nc23)cc1 [Example 198, 2-(4-fluoro-phenyl)-3H-imidazo[4,5-b]pyridine-7-carboxylic acid[2-(4-ethanesulfonylamino-phenyl)-ethyl]-amide]	2400			12500			
Cc1ccncc1NC(=O)c1ccnc2[nH]c(-c3ccc(F)cc3)nc12 [Example 241, 2-(4-fluoro-phenyl)-3H-imidazo[4,5-b]pyridine-7-carboxylic acid(4-methyl-pyridin-3-yl)-amide]					16500		28500
